Data published in patent publication US11058688B2, “Imidazopiperazine inhibitors of transcription activating proteins” (Board of Regents, The University of Texas System, priority 2018, dated 2021).

Columns and labels:
[1] = target: GST-CBP(1081-1197) bromodomain (Homo sapiens (Human), UniProt Q92793); assay: CBP AlphaScreen Assay; conditions: binding to biotin-H4(1-21) Ac-K5/8/12/16 peptide
Description: (§1) Specific binding of the CBP or BRD4 bromodomain to the acetylated peptide derived from the H4 histone substrate (tetra acetylated H4(1-21) Ac-K5/8/12/16) was measured in absence or presence of inhibitors.
(§2) The standard dose response curves were fitted by Genedata Screener software using the variable-slope model: Signal=Signalnegative control+(SignalDMSO control−Signalnegative control)/(1+(IC50/Dose)^Hill slope).
(§3) Only Signal and Dose in the equation were treated as known values.

[2] = target: BRD4(49-170) bromodomain (Homo sapiens (Human), UniProt O60885); assay: BRD4 AlphaScreen Assay; conditions: binding to biotin-H4(1-21) Ac-K5/8/12/16 peptide
Description: as §1, §2, §3

Chain of GST-CBP(1081-1197) bromodomain (Q92793 1081-1197): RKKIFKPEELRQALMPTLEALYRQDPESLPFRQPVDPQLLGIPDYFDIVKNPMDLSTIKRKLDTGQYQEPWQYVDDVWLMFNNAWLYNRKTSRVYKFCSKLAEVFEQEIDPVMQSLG

CC(=O)N1CCn2c(C3CC3)nc(N3CCCc4cc(-c5cnn(CC6CC6)c5)ccc43)c2C1 [Example 115, 1-(3-cyclopropyl-1-(6-(1-(cyclopropylmethyl)-1H-pyrazol-4-yl)-3,4-dihydroquinolin-1(2H)-yl)-5,6-dihydroimidazo[1,5-a]pyrazin-7(8H)-yl)ethan-1-one]
IC50 [1]: 679 nM | IC50 [2]: > 25000 nM

CNC(=O)N1CCn2c(C3CCOCC3)nc(-c3cccc4cc(-c5cnc(C)s5)ncc34)c2C1 [Example 95, N-methyl-1-(3-(2-methylthiazol-5-yl)isoquinolin-8-yl)-3-(tetrahydro-2H-pyran-4-yl)-5,6-dihydroimidazo[1,5-a]pyrazine-7(8H)-carboxamide]
IC50 [1]: 1 nM | IC50 [2]: 3480 nM

CC(=O)N1CCn2c(C(C)C)nc(-c3ccc4c(c3)c(-c3cnn(C)c3)nn4C)c2C1 [Example 49, 1-(3-isopropyl-1-(1-methyl-3-(1-methyl-1H-pyrazol-4-yl)-1H-indazol-5-yl)-5,6-dihydroimidazo[1,5-a]pyrazin-7(8H)-yl)ethan-1-one]
IC50 [1]: 67 nM | IC50 [2]: > 10000 nM

CC(=O)N1CCn2cnc(-c3ccc4c(c3)c(-c3cnn(C)c3)nn4C)c2C1 [Example 10, 1-(1-(1-Methyl-3-(1-methyl-1H-pyrazol-4-yl)-1H-indazol-5-yl)-5,6-dihydroimidazo[1,5-a]pyrazin-7(8H)-yl)ethanone]
IC50 [1]: 197 nM | IC50 [2]: > 10000 nM

CC(=O)N1CCn2c(C3CCC3)nc(-c3ccc4c(c3)c(-c3cnn(C)c3)nn4C)c2C1 [Example 46, 1-(3-cyclobutyl-1-(1-methyl-3-(1-methyl-1H-pyrazol-4-yl)-1H-indazol-5-yl)-5,6-dihydroimidazo[1,5-a]pyrazin-7(8H)-yl)ethan-1-one]
IC50 [1]: 52 nM | IC50 [2]: > 10000 nM

CNC(=O)N1CCn2c(C3CC(F)(F)C3)nc(-c3cccc4cc(-c5cn(C)nc5C)ncc34)c2C1 [Example 71, 3-(3,3-difluorocyclobutyl)-1-(3-(1,3-dimethyl-1H-pyrazol-4-yl)isoquinolin-8-yl)-N-methyl-5,6-dihydroimidazo[1,5-a]pyrazine-7(8H)-carboxamide]
IC50 [1]: 38 nM | IC50 [2]: 13400 nM

CNC(=O)N1CCn2c(C3CC3)nc(N3CCCc4cc(-c5cnn(C)c5)c(C(F)F)cc43)c2C1 [Example 3, 3-cyclopropyl-1-(7-(difluoromethyl)-6-(1-methyl-1H-pyrazol-4-yl)-3,4-dihydroquinolin-1(2H)-yl)-N-methyl-5,6-dihydroimidazo[1,5-a]pyrazine-7(8H)-carboxamide]
IC50 [1]: 5 nM | IC50 [2]: > 10000 nM

CC(=O)N1CCn2c(C)nc(-c3ccc4c(c3)c(-c3cnn(C)c3)nn4C)c2C1 [Example 47, 1-(3-methyl-1-(1-methyl-3-(1-methyl-1H-pyrazol-4-yl)-1H-indazol-5-yl)-5,6-dihydroimidazo[1,5-a]pyrazin-7(8H)-yl)ethan-1-one]
IC50 [1]: 153 nM | IC50 [2]: > 10000 nM

CNC(=O)N1CCn2c(C3CC3)nc(-c3cccc4cc(-c5cnn(C)c5)ncc34)c2C1 [Example 124, 3-cyclopropyl-N-methyl-1-(3-(1-methyl-1H-pyrazol-4-yl)isoquinolin-8-yl)-5,6-dihydroimidazo[1,5-a]pyrazine-7(8H)-carboxamide]
IC50 [1]: 2 nM | IC50 [2]: 6480 nM

CNC(=O)c1ccc(-c2nc3cccc(-c4nc(C5CC5)n5c4CN(C(=O)NC)CC5)c3cc2C#N)cn1 [Example 99, 1-(3-cyano-2-(6-(methylcarbamoyl)pyridin-3-yl)quinolin-5-yl)-3-cyclopropyl-N-methyl-5,6-dihydroimidazo[1,5-a]pyrazine-7(8H)-carboxamide]
IC50 [1]: 11 nM | IC50 [2]: 8710 nM

CC(=O)N1CCn2c(C3CC3)nc(N3CCCc4cc(-c5c(C)noc5C)ccc43)c2C1 [Example 111, 1-(3-cyclopropyl-1-(6-(3,5-dimethylisoxazol-4-yl)-3,4-dihydroquinolin-1(2H)-yl)-5,6-dihydroimidazo[1,5-a]pyrazin-7(8H)-yl)ethan-1-one]
IC50 [1]: 1450 nM | IC50 [2]: 10300 nM

CC(=O)N1CCC(c2nc(-c3ccc4c(c3)c(-c3cnn(C)c3)nn4C)c3n2CCN(C(C)=O)C3)CC1 [Example 53, 1-(4-(7-acetyl-1-(1-methyl-3-(1-methyl-1H-pyrazol-4-yl)-1H-indazol-5-yl)-5,6,7,8-tetrahydroimidazo[1,5-a]pyrazin-3-yl)piperidin-1-yl)ethan-1-one]
IC50 [1]: 176 nM | IC50 [2]: > 10000 nM

CNC(=O)N1CCn2c(C3CC3)nc(-c3csc4cc(-c5cnn(C)c5)ncc34)c2C1 [Example 39, 3-Cyclopropyl-N-methyl-1-(6-(1-methyl-1H-pyrazol-4-yl)thieno[3,2-c]pyridin-3-yl)-5,6-dihydroimidazo[1,5-a]pyrazine-7(8H)-carboxamide]
IC50 [1]: 33 nM | IC50 [2]: 14800 nM

CC(=O)N1CCn2c(C3CC3)nc(N3CCCc4cc(-c5cnn(C(F)F)c5)ccc43)c2C1 [Example 110, 1-(3-cyclopropyl-1-(6-(1-(difluoromethyl)-1H-pyrazol-4-yl)-3,4-dihydroquinolin-1(2H)-yl)-5,6-dihydroimidazo[1,5-a]pyrazin-7(8H)-yl)ethan-1-one]
IC50 [1]: 185 nM | IC50 [2]: 11200 nM

CNC(=O)N1CCn2c(C3CCOCC3)nc(-c3cccc4cc(C5CCOCC5)ncc34)c2C1 [Example 68, N-methyl-3-(tetrahydro-2H-pyran-4-yl)-1-(3-(tetrahydro-2H-pyran-4-yl)isoquinolin-8-yl)-5,6-dihydroimidazo[1,5-a]pyrazine-7(8H)-carboxamide]
IC50 [1]: 16 nM | IC50 [2]: > 25000 nM

CC(=O)N1CCn2c(C3CC3)nc(N3CCCc4cc(-c5cnn(CCN6CCOCC6)c5)ccc43)c2C1 [Example 122, 1-(3-cyclopropyl-1-(6-(1-(2-morpholinoethyl)-1H-pyrazol-4-yl)-3,4-dihydroquinolin-1(2H)-yl)-5,6-dihydroimidazo[1,5-a]pyrazin-7(8H)-yl)ethan-1-one]
IC50 [1]: 500 nM | IC50 [2]: > 25000 nM

CNC(=O)N1CCn2c(C3CC3)nc(-c3cccc4nc(N5CCOCC5)c(C#N)cc34)c2C1 [Example 24, 1-(3-Cyano-2-morpholinoquinolin-5-yl)-3-cyclopropyl-N-methyl-5,6-dihydroimidazo[1,5-a]pyrazine-7(8H)-carboxamide]
IC50 [1]: 6 nM | IC50 [2]: 9110 nM

CNC(=O)N1CCn2c(C3CC(F)(F)C3)nc(-c3c(F)ccc4cc(-c5cn(C)nc5C)ncc34)c2C1 [Example 77, 3-(3,3-difluorocyclobutyl)-1-(3-(1,3-dimethyl-1H-pyrazol-4-yl)-7-fluoroisoquinolin-8-yl)-N-methyl-5,6-dihydroimidazo[1,5-a]pyrazine-7(8H)-carboxamide]
IC50 [1]: 45 nM | IC50 [2]: > 25000 nM

CNC(=O)N1CCn2c(C3CC(F)(F)C3)nc(-c3c(F)ccc4cc(-c5cnc(C)s5)ncc34)c2C1 [Example 92, 3-(3,3-difluorocyclobutyl)-1-(7-fluoro-3-(2-methylthiazol-5-yl)isoquinolin-8-yl)-N-methyl-5,6-dihydroimidazo[1,5-a]pyrazine-7(8H)-carboxamide]
IC50 [1]: 10 nM | IC50 [2]: > 25000 nM

CNC(=O)N1CCn2c(C3CCOCC3)nc(-c3cccc4nc(-c5cnn(C)c5)c(C(F)(F)F)cc34)c2C1 [Example 65, N-methyl-1-(2-(1-methyl-1H-pyrazol-4-yl)-3-(trifluoromethyl)quinolin-5-yl)-3-(tetrahydro-2H-pyran-4-yl)-5,6-dihydroimidazo[1,5-a]pyrazine-7(8H)-carboxamide]
IC50 [1]: 4 nM | IC50 [2]: 13700 nM

CC(=O)N1CCn2c(C3CC3)nc(N3CCCc4cc(-c5ccc(C(N)=O)cc5)ccc43)c2C1 [Example 35, 4-(1-(7-Acetyl-3-cyclopropyl-5,6,7,8-tetrahydroimidazo[1,5-a]pyrazin-1-yl)-1,2,3,4-tetrahydroquinolin-6-yl)benzamide]
IC50 [1]: 79 nM | IC50 [2]: > 25000 nM

CC(=O)N1CCn2c(C3CC3)nc(-c3ccc4nn(C)c(-c5cnn(C)c5)c4c3F)c2C1 [Example 27, 1-(3-Cyclopropyl-1-(4-fluoro-2-methyl-3-(1-methyl-1H-pyrazol-4-yl)-2H-indazol-5-yl)-5,6-dihydroimidazo[1,5-a]pyrazin-7(8H)-yl)ethan-1-one]
IC50 [1]: 1220 nM | IC50 [2]: > 25000 nM

CC(=O)N1CCn2c(C3CC3)nc(N3CCCc4cc(-c5cncc(S(C)(=O)=O)c5)ccc43)c2C1 [Example 107, 1-(3-cyclopropyl-1-(6-(5-(methylsulfonyl)pyridin-3-yl)-3,4-dihydroquinolin-1(2H)-yl)-5,6-dihydroimidazo[1,5-a]pyrazin-7(8H)-yl)ethan-1-one]
IC50 [1]: 510 nM | IC50 [2]: > 25000 nM

CC(=O)N1CCn2c(C3CC3)nc(N3CCCc4cc(-c5cnn(Cc6ccccn6)c5)ccc43)c2C1 [Example 116, 1-(3-cyclopropyl-1-(6-(1-(pyridin-2-ylmethyl)-1H-pyrazol-4-yl)-3,4-dihydroquinolin-1(2H)-yl)-5,6-dihydroimidazo[1,5-a]pyrazin-7(8H)-yl)ethan-1-one]
IC50 [1]: 1280 nM | IC50 [2]: > 25000 nM

CNC(=O)N1CCn2c(C3CC3)nc(-c3cccc4cc(-c5cn(C)nc5C)ncc34)c2C1 [Example 69, 3-cyclopropyl-1-(3-(1,3-dimethyl-1H-pyrazol-4-yl)isoquinolin-8-yl)-N-methyl-5,6-dihydroimidazo[1,5-a]pyrazine-7(8H)-carboxamide]
IC50 [1]: 17 nM | IC50 [2]: 10100 nM

CNC(=O)N1Cc2c(-c3cccc4cc(-c5cnn(C)c5)ncc34)nc(C3CC3)n2CC1C (stereo not shown) [Example 125, 3-cyclopropyl-N,6-dimethyl-1-(3-(1-methyl-1H-pyrazol-4-yl)isoquinolin-8-yl)-5,6-dihydroimidazo[1,5-a]pyrazine-7(8H)-carboxamide]
IC50 [1]: 19 nM | IC50 [2]: > 10000 nM
